Measurements reported in PubChem BioAssay (NCI).
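Results reflect a 48-hour exposure of cells in 96-well plates to compound at five concentrations. TGI: concentration producing complete growth inhibition.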

Assays:
Test in all cases: inhibition of tumour cell growth, NCI panel, 48 h
OVCAR-4 ovarian = tested on: OVCAR-4 ovarian
OVCAR-3 ovarian = tested on: OVCAR-3 ovarian
SNB-75 CNS = tested on: SNB-75 CNS
HCT-15 colon = tested on: HCT-15 colon
HL-60(TB) leukemia = tested on: HL-60(TB) leukemia
RXF 393 renal = tested on: RXF 393 renal
TK-10 renal = tested on: TK-10 renal
CCRF-CEM leukemia = tested on: CCRF-CEM leukemia
CAKI-1 renal = tested on: CAKI-1 renal
UACC-257 melanoma = tested on: UACC-257 melanoma
SR leukemia = tested on: SR leukemia
K-562 leukemia = tested on: K-562 leukemia
ACHN renal = tested on: ACHN renal
NCI/ADR-RES ovarian = tested on: NCI/ADR-RES ovarian
EKVX NSCLC = tested on: EKVX NSCLC
SK-MEL-28 melanoma = tested on: SK-MEL-28 melanoma
NCI-H226 lung = tested on: NCI-H226 lung
786-0 renal = tested on: 786-0 renal
HOP-62 NSCLC = tested on: HOP-62 NSCLC
NCI-H522 lung = tested on: NCI-H522 lung
SF-295 CNS = tested on: SF-295 CNS
NCI-H460 lung = tested on: NCI-H460 lung
MDA-MB-435 = tested on: MDA-MB-435
SK-MEL-5 melanoma = tested on: SK-MEL-5 melanoma
NCI-H23 lung = tested on: NCI-H23 lung
U251 CNS = tested on: U251 CNS
IGROV1 ovarian = tested on: IGROV1 ovarian
T-47D breast = tested on: T-47D breast
COLO 205 colon = tested on: COLO 205 colon
SNB-19 CNS = tested on: SNB-19 CNS
SN12C renal = tested on: SN12C renal
OVCAR-8 ovarian = tested on: OVCAR-8 ovarian
M14 melanoma = tested on: M14 melanoma
MCF7 breast = tested on: MCF7 breast
UACC-62 melanoma = tested on: UACC-62 melanoma
HCT-116 colon = tested on: HCT-116 colon
MOLT-4 leukemia = tested on: MOLT-4 leukemia
SF-539 CNS = tested on: SF-539 CNS
RPMI-8226 leukemia = tested on: RPMI-8226 leukemia
SF-268 CNS = tested on: SF-268 CNS
HS 578T breast = tested on: HS 578T breast
KM12 colon = tested on: KM12 colon
HCC-2998 colon = tested on: HCC-2998 colon
MDA-MB-231 breast = tested on: MDA-MB-231 breast
PC-3 prostate = tested on: PC-3 prostate
A549 NSCLC = tested on: A549 NSCLC
DU-145 prostate = tested on: DU-145 prostate
BT-549 breast = tested on: BT-549 breast
UO-31 renal = tested on: UO-31 renal
SW-620 colon = tested on: SW-620 colon
SK-OV-3 ovarian = tested on: SK-OV-3 ovarian
SK-MEL-2 melanoma = tested on: SK-MEL-2 melanoma
MALME-3M melanoma = tested on: MALME-3M melanoma
HT29 colon = tested on: HT29 colon
OVCAR-5 ovarian = tested on: OVCAR-5 ovarian
HOP-92 NSCLC = tested on: HOP-92 NSCLC
A498 renal = tested on: A498 renal

CN(C)c1ccc(/C=C2\Oc3cc(O)ccc3C2=O)cc1
TGI (OVCAR-4 ovarian): > 100 µM | TGI (OVCAR-3 ovarian): > 100 µM | TGI (SNB-75 CNS): > 100 µM | TGI (HCT-15 colon): > 100 µM | TGI (HL-60(TB) leukemia): > 100 µM | TGI (RXF 393 renal): > 100 µM | TGI (TK-10 renal): > 100 µM | TGI (CCRF-CEM leukemia): > 100 µM | TGI (CAKI-1 renal): > 100 µM | TGI (UACC-257 melanoma): > 100 µM | TGI (SR leukemia): > 100 µM | TGI (K-562 leukemia): > 100 µM | TGI (ACHN renal): > 100 µM | TGI (NCI/ADR-RES ovarian): > 100 µM | TGI (EKVX NSCLC): > 100 µM | TGI (SK-MEL-28 melanoma): > 100 µM | TGI (NCI-H226 lung): > 100 µM | TGI (786-0 renal): > 100 µM | TGI (HOP-62 NSCLC): > 100 µM | TGI (NCI-H522 lung): > 100 µM | TGI (SF-295 CNS): > 100 µM | TGI (NCI-H460 lung): > 100 µM | TGI (MDA-MB-435): > 100 µM | TGI (SK-MEL-5 melanoma): > 100 µM | TGI (NCI-H23 lung): > 100 µM | TGI (U251 CNS): > 100 µM | TGI (IGROV1 ovarian): > 100 µM | TGI (T-47D breast): > 100 µM | TGI (COLO 205 colon): > 100 µM | TGI (SNB-19 CNS): > 100 µM | TGI (SN12C renal): > 100 µM | TGI (OVCAR-8 ovarian): > 100 µM | TGI (M14 melanoma): > 100 µM | TGI (MCF7 breast): > 100 µM | TGI (UACC-62 melanoma): > 100 µM | TGI (HCT-116 colon): > 100 µM | TGI (MOLT-4 leukemia): > 100 µM | TGI (SF-539 CNS): > 100 µM | TGI (RPMI-8226 leukemia): > 100 µM | TGI (SF-268 CNS): > 100 µM | TGI (HS 578T breast): > 100 µM | TGI (KM12 colon): > 100 µM | TGI (HCC-2998 colon): > 100 µM | TGI (MDA-MB-231 breast): > 100 µM | TGI (PC-3 prostate): > 100 µM | TGI (A549 NSCLC): > 100 µM | TGI (DU-145 prostate): > 100 µM | TGI (BT-549 breast): > 100 µM | TGI (UO-31 renal): > 100 µM | TGI (SW-620 colon): > 100 µM | TGI (SK-OV-3 ovarian): > 100 µM

COc1ccc(CNc2nc(NCc3ccc(OC)cc3)nc(N3CCOCC3)n2)cc1
TGI (OVCAR-4 ovarian): > 100 µM | TGI (OVCAR-3 ovarian): 6.81 µM | TGI (SNB-75 CNS): > 100 µM | TGI (HCT-15 colon): 6.21 µM | TGI (HL-60(TB) leukemia): 13.6 µM | TGI (RXF 393 renal): > 100 µM | TGI (TK-10 renal): 28.8 µM | TGI (CAKI-1 renal): 6.9 µM | TGI (UACC-257 melanoma): > 100 µM | TGI (SR leukemia): 4.92 µM | TGI (K-562 leukemia): 26.2 µM | TGI (ACHN renal): > 100 µM | TGI (NCI/ADR-RES ovarian): 13 µM | TGI (EKVX NSCLC): > 100 µM | TGI (SK-MEL-28 melanoma): > 100 µM | TGI (NCI-H226 lung): > 100 µM | TGI (786-0 renal): > 100 µM | TGI (HOP-62 NSCLC): > 100 µM | TGI (SK-MEL-2 melanoma): > 100 µM | TGI (NCI-H522 lung): > 100 µM | TGI (SF-295 CNS): 8.98 µM | TGI (NCI-H460 lung): > 100 µM | TGI (MDA-MB-435): 4.66 µM | TGI (MALME-3M melanoma): 5.84 µM | TGI (SK-MEL-5 melanoma): 24.4 µM | TGI (NCI-H23 lung): 28.7 µM | TGI (U251 CNS): > 100 µM | TGI (IGROV1 ovarian): > 100 µM | TGI (T-47D breast): > 100 µM | TGI (COLO 205 colon): > 100 µM | TGI (SNB-19 CNS): > 100 µM | TGI (SN12C renal): > 100 µM | TGI (OVCAR-8 ovarian): > 100 µM | TGI (M14 melanoma): > 100 µM | TGI (MCF7 breast): > 100 µM | TGI (UACC-62 melanoma): > 100 µM | TGI (HCT-116 colon): > 100 µM | TGI (MOLT-4 leukemia): 10.9 µM | TGI (HT29 colon): 9.63 µM | TGI (OVCAR-5 ovarian): 41.6 µM | TGI (SF-539 CNS): 19.2 µM | TGI (RPMI-8226 leukemia): 4.03 µM | TGI (HS 578T breast): > 100 µM | TGI (HOP-92 NSCLC): > 100 µM | TGI (KM12 colon): 8.09 µM | TGI (MDA-MB-231 breast): > 100 µM | TGI (PC-3 prostate): > 100 µM | TGI (A549 NSCLC): > 100 µM | TGI (DU-145 prostate): > 100 µM | TGI (BT-549 breast): > 100 µM | TGI (A498 renal): 93.8 µM | TGI (UO-31 renal): > 100 µM | TGI (SW-620 colon): > 100 µM | TGI (SK-OV-3 ovarian): > 100 µM
